Data taken from patent US4880939A, “2,5,6,7-tetranor-18,18,19,19-tetradehydro-4,8-inter-m-phenylene PGI2 derivatives” (Toray Industries, priority 1986, dated 1989).
In brackets after ≈: the same amount, converted by molar mass. Where two headings read alike, the source gives them in different places.

Assays:
[1] = background; cited from earlier work
gastric acid secretion [2] = assay: Gastric acid secretion-inhibiting activity, pylorus ligation method (Shay); assay type: in vivo; conditions: injected into duodenum, pylorus ligated rats, five hours, five animals; for ED50, Acidity (gastric acid secretion-inhibiting activity) / ED50, Gastric juice volume (gastric acid secretion-inhibiting activity): 300 min; for ED50: Rattus norvegicus, 5 h
Method: Gastric acid secretion-inhibiting activity of the compounds of the present invention was investigated according to the pylorus ligation method described by Shay in Gastroenterology, 5, 43 (1945).
Under anesthesia by ether, the abdomen of a group of rats is incised at its median and the pylorus is ligated with a silk thread. Simultaneously, a compound to be tested is injected into the duodenum of the same rat. The abdomen is then closed. Five hours later, the abdomen is again incised and the esophagus is ligated. The whole stomach is then removed. The stomach is cut along the greater curvature and the contents of the stomach are transferred to a graduated centrifugal tube. After centrifugation at 3,000 rpm for 10 minutes, the volume of the gastric juice is measured. A portion of the supernatant is taken and titrated to pH 7 with 0.1N NaOH in a pH stat, Radio Meter Inc. An average dose amount of a compound to be tested in a group of five animals, by which either the volume of gastric juice (in ml) or the acidity (in mEq/ml) is reduced to 50% of the corresponding value of a control group, is designated as ED50.

platelet aggregation = assay: Platelet aggregation-inhibiting activity (ADP-induced, platelet-rich plasma); assay type: cell-based, person; conditions: PRP, ADP 10 μM, compound added one minute before ADP; for IC50: Platelet
Method: The blood taken from the cubital median vein of a person is centrifuged at 800 rpm for 10 minutes and the supernatant is used as platelet-rich plasma (PRP). The PRP is distributed into small test tubes, and adenosine diphosphate (ADP) is added at a final concentration of 10 μM thereinto to induce platelet aggregation. The size of the aggregation is determined in a platelet aggregation measuring apparatus (RiKa-Denki, Tokyo, Japan) by measuring the change in turbidity of a sample in the small test tube. A compound to be tested is added to the sample one minute before the addition of ADP. The concentration of the compound to be tested, by which the platelet aggregation is reduced to 50% of that observed in a control group, is designated as IC50.

[3] = test system: blood pressure in the carotid; assay: Hypotensive activity; assay type: in vivo, Wistar male rats; conditions: dose reducing blood pressure by 25 mmHg, injected via femoral artery, chloralose anesthesia; for ED (25 mmHg): Rattus norvegicus, read-out: ED25 (hypotensive activity)
Method: A catheter is inserted into and held in the carotid of a group of Wistar male rats under anesthesia by chloralose. Another end of the catheter is connected to a polygraph with a pressure transducer to measure the blood pressure in the carotid. A compound to be tested is injected via a catheter connected to the femoral artery. A dose amount of a compound to be tested, by which the blood pressure is reduced by 25 mmHg in the dose-response curve of the hypotensive compound, is designated as ED25.

[4] = test system: lesions appearing on the stomach corpus; assay: Gastric cytoprotection activity (method of A. Robert; 0.2N NaOH-induced stomach lesions); assay type: in vivo; conditions: dose reducing ulcer index to 50% of control, 30 minutes before 0.2N NaOH; for ED50 (gastric cytoprotection activity): oral; for ED50: po
Method: Gastric cytoprotection activity of the compounds of the present invention was investigated according to the method described by A. Robert in Gastroenterology, 77(3), 443 (1979).
A compound to be tested is orally administered to a group of animals and, 30 minutes later, 0.2N NaOH is orally applied to the animals. One hour later, the animals are sacrificed under anesthesia by chloroform and their stomachs are removed and fixed in 5% formalin solution. The stomach is then incised along the greater curvature. Lengths of lesions appearing on the stomach corpus are measured and summed. The total length is served as an ulcer index. A dose amount of a compound to be tested, by which the ulcer index is reduced to 50% of the index of a control group (100%), is designated as ED50.

gastric acid secretion [5] = assay: Gastric acid secretion-inhibiting activity, method of M. Ghosh and H. Schild (perfused stomach, pentagastrin stimulation); assay type: in vivo, male SD rats; conditions: ratio of index (area of pH time course) to that of PGE2; femoral vein injection; pentagastrin 0.05 μg/kg per minute
Text: The gastric acid secretion-inhibiting activity of the compounds of the present invention was also investigated according to the method described by M. Ghosh and H. Schild, Br. J. Pharmacol., 13, 54 (1958).
A group of male SD rats is incised in the abdomen under anesthesia by urethane. The lumen of the stomach is perfused with saline through a double tube cannula which has been inserted into the stomach through a lumen formed in the cardia. The pH of draining gastric acid is monitored by a pH meter. The secretion of gatric acid is stimulated by continuous infusion of pentagastrin at a rate of 0.05 μg/kg per minute. When the pH of the gastric acid becomes stable at about 4.0, a compound to be tested is injected through the femoral vein. An index for the gastric acid secretion-inhibiting activity of a compound to be tested is calculated from the area surrounded by a curve drawn by the time course of the pH of the gastric acid, from the time point when an initial increase of the pH is observed due to the gastric acid secretion-inhibition by the compound injected to the time point when the pH comes back to the baseline. The index thus obtained is compared to that of PGE2 and the ratio of the index to that of PGE2 is calculated.

[6] = test system: platelet aggregation, gastric acid secretion, peripheral blood vessel; conditions: background; cited from earlier work
[7] = unstable exo-enol structure; converted into 6-oxo PGF1α; cited from earlier work
[8] = background; cited from earlier work; remark: listed apart in the source
[9] = acidity reduced to 50% of control
[10] = gastric juice volume reduced to 50% of control
[11] = acidity reduced to 50% of control, read-out: ED50, Acidity (gastric acid secretion-inhibiting activity)
[12] = gastric juice volume reduced to 50% of control, read-out: ED50, Gastric juice volume (gastric acid secretion-inhibiting activity)

IC50 (platelet aggregation) [ng/mL] | SMILES | ED50 (gastric acid secretion [2]; [11]) [µg/kg] | ED50 (gastric acid secretion [2]; [12]) [µg/kg] | Relative activity (PGE2 = 1), gastric acid secretion-inhibiting activity (gastric acid secretion [5]) | ED (25 mmHg) [3] [µg/kg] | ED50 [4] [µg/kg] | further results
– | CCCCC[C@H](O)/C=C/[C@@H]1[C@@H](CC(=O)CCCCC(=O)O)[C@@H](O)C[C@H]1O [6-oxo PGF1α] | – | – | – | – | – | physiological activity [1]: substantially inactive physiologically
– | CC#CCC(C)C(O)C=CC1C(O)CC2Oc3c(CCC(=O)O)cccc3C21 [Compound 38, 16(R)-Methyl-2,5,6,7-tetranor-18,18,19,19-tetradehydro-4,8-inter-m-phenylene PGI2] | – | – | – | – | – | ED50, Acidity (gastric acid secretion-inhibiting activity) (gastric acid secretion [2]; [9]): 490 µg/kg; ED50, Gastric juice volume (gastric acid secretion-inhibiting activity) (gastric acid secretion [2]; [10]): > 1000 µg/kg; IC50 (platelet aggregation-inhibiting activity) (platelet aggregation): 6.5 ng/mL (≈ 16.9 nM); ED25 (hypotensive activity) [3]: 0.57 µg/kg; ED50 (gastric cytoprotection activity) [4]: 24.1 µg/kg
– | CC#CCC(C)C(O)C=CC1C(O)CC2Oc3c(CCC(=O)O)cccc3C21 [Compound 39, 16(S)-methyl-2,5,6,7-tetranor-18,18,19,19-tetradehydro-4,8-inter-m-phenylene PGI2] | – | – | – | – | – | ED50, Acidity (gastric acid secretion-inhibiting activity) (gastric acid secretion [2]; [9]): 9.5 µg/kg; ED50, Gastric juice volume (gastric acid secretion-inhibiting activity) (gastric acid secretion [2]; [10]): 25 µg/kg; IC50 (platelet aggregation-inhibiting activity) (platelet aggregation): 0.42 ng/mL (≈ 1.09 nM); ED25 (hypotensive activity) [3]: 0.07 µg/kg; ED50 (gastric cytoprotection activity) [4]: 0.38 µg/kg
0.34 (≈ 0.853 nM) | CCC#CCC(C)C(O)C=CC1C(O)CC2Oc3c(CCC(=O)O)cccc3C21 (stereo not shown) [Compound 42, 16-Methyl-20a-homo-2,5,6,7-tetranor-18,18,19,19-tetradehydro-4,8-inter-m-phenylene PGI2] | 23 | 18 | 26 | – | – | –
0.96 (≈ 2.33 nM) | CCCC#CCC(C)C(O)C=CC1C(O)CC2Oc3c(CCC(=O)O)cccc3C21 (stereo not shown) [Compound 46, 16-Methyl-20a,20b-dihomo-2,5,6,7-tetranor-18,18,19,19-tetradehydro-4,8-inter-m phenylene PGI2] | 140 | 120 | – | 0.22 | 2.33 | –
0.63 (≈ 1.48 nM) | CCCCC#CCC(C)C(O)C=CC1C(O)CC2Oc3c(CCC(=O)O)cccc3C21 (stereo not shown) [Compound 50, 16-Methyl-20a,20b,20c-trihomo-2,5,6,7-tetranor-18,18,19,19-tetradehydro-4,8-inter-m-phenylene PGI2] | 740 | 510 | – | – | 3.74 | –
7.3 (≈ 18.3 nM) | CC#CCC(C)(C)C(O)C=CC1C(O)CC2Oc3c(CCC(=O)O)cccc3C21 (stereo not shown) [Compound 54, 16,16-Dimethyl-2,5,6,7-tetranor-18,18,19,19-tetradehydro-4,8-inter-m-phenylene PGI2] | 230 | > 300 | 16 | 0.64 | 2.8 | –
3.2 (≈ 7.76 nM) | CCC#CCC(C)(C)C(O)C=CC1C(O)CC2Oc3c(CCC(=O)O)cccc3C21 (stereo not shown) [Compound 57, 16,16-Dimethyl-20a-homo-2,5,6,7-tetranor-18,18,19,19-tetradehydro-4,8-inter-m-phenylene PGI2] | 87 | 210 | 5.3 | 0.14 | 1.14 | –
3 (≈ 6.81 nM) | CCCCC#CCC(C)(C)C(O)C=CC1C(O)CC2Oc3c(CCC(=O)O)cccc3C21 (stereo not shown) [Compound 60, 16,16-Dimethyl-20a,20b,20c-trihomo-2,5,6,7-tetranor-18,18,19,19-tetradehydro-4,8-inter-m-phenylene PGI2] | > 3000 | > 3000 | 0.5 | – | – | –
5.5 (≈ 12.1 nM) | CCCCCC#CCC(C)(C)C(O)C=CC1C(O)CC2Oc3c(CCC(=O)O)cccc3C21 (stereo not shown) [Compound 64, 16,16-dimethyl-20a,20b,20c,20d-tetrahomo-2,5,6,7-tetranor-18,18,19,19-tetradehydro-4,8-inter-m-phenylene PGI2] | > 10000 | 5600 | 0.25 | 15.5 | 27.7 | –
– | CC#CCC(C)(C)C(O)C=CC1C(O)CC2Oc3c(CCCO)cccc3C21 (stereo not shown) [Compound 69, 3-Decarboxy-3-hydroxymethyl-16,16-dimethyl-2,5,6,7-tetranor-18,18,19,19-tetradehydro-4,8-inter-m-phenylene PGI2] | 270 | > 3000 | 2.7 | > 100 | 0.82 | –
– | CCCCC[C@H](O)/C=C/[C@H]1[C@H](O)CC(=O)[C@@H]1C/C=C\CCCC(=O)O [PGE2, reference compound] | – | – | 1 | – | – | –
– | CCCCC[C@H](O)/C=C/[C@@H]1[C@H]2C/C(=C/CCCC(=O)O)O[C@H]2C[C@H]1O [PGI2, Prostaglandin I2] | – | – | – | – | – | gastric acid secretion-inhibiting activity [6]: potent; peripheral blood vessel-dilating activity [6]: potent; platelet aggregation-inhibiting activity [6]: potent; stability in neutral aqueous solutions [7]: extremely unstable; duration of physiological activities in vivo [8]: only short duration; stability in vivo [8]: unstable in vivo
